Assay results: PMC9481151, “Discovery of new symmetrical and asymmetrical nitrile-containing 1,4-dihydropyridine derivatives as dual kinases and P-glycoprotein inhibitors: synthesis, in vitro assays, and in silico studies” (Journal of Enzyme Inhibition and Medicinal Chemistry, 2022)
Where “and” joins values, the source holds several entries; their conditions need not be identical. Equal entries are not always repeated.

Tests used:
[1] = test system: HCT-15; assay: NCI single dose (10 µM) SRB screen; type: cell-based, human; conditions: colon cancer, 48 h
[2] = test system: SNB-19; assay: NCI single dose (10 µM) SRB screen; type: cell-based, human; conditions: CNS cancer, 48 h
[3] = test system: MDA-MB-435; assay: NCI single dose (10 µM) SRB screen; type: cell-based, human; conditions: melanoma, 48 h
[4] = test system: OVCAR-3; assay: NCI single dose (10 µM) SRB screen; type: cell-based, human; conditions: ovarian cancer, 48 h
[5] = test system: TK-10; assay: NCI single dose (10 µM) SRB screen; type: cell-based, human; conditions: renal cancer, 48 h
[6] = test system: EKVX; assay: NCI single dose (10 µM) SRB screen; type: cell-based, human; conditions: non-small cell lung cancer, 48 h
[7] = test system: RPMI-8226; assay: NCI single dose (10 µM) SRB screen; type: cell-based, human; conditions: leukaemia, 48 h
[8] = test system: HCT-116; assay: NCI single dose (10 µM) SRB screen; type: cell-based, human; conditions: colon cancer, 48 h
[9] = test system: IGROV1; assay: NCI single dose (10 µM) SRB screen; type: cell-based, human; conditions: ovarian cancer, 48 h
[10] = test system: CCRF-CEM; assay: NCI single dose (10 µM) SRB screen; type: cell-based, human; conditions: leukaemia, 48 h
[11] = test system: ACHN; assay: NCI single dose (10 µM) SRB screen; type: cell-based, human; conditions: renal cancer, 48 h
[12] = test system: NCI 60 cancer cell lines; assay: NCI single dose (10 µM) SRB screen, mean over panel; type: cell-based, human; conditions: mean over 60 cell lines, 48 h
[13] = test system: Candida albicans; assay: Agar well diffusion method
[14] = test system: SK-MEL-2; assay: NCI single dose (10 µM) SRB screen; type: cell-based, human; conditions: melanoma, 48 h
[15] = test system: BT-549; assay: NCI single dose (10 µM) SRB screen; type: cell-based, human; conditions: breast cancer, 48 h
[16] = test system: LOX IMVI; assay: NCI single dose (10 µM) SRB screen; type: cell-based, human; conditions: melanoma, 48 h
[17] = test system: M14; assay: NCI single dose (10 µM) SRB screen; type: cell-based, human; conditions: melanoma, 48 h
[18] = test system: UO-31; assay: NCI single dose (10 µM) SRB screen; type: cell-based, human; conditions: renal cancer, 48 h
[19] = test system: A498; assay: NCI single dose (10 µM) SRB screen; type: cell-based, human; conditions: renal cancer, 48 h
[20] = test system: Staphylococcus aureus; assay: Agar well diffusion method
[21] = test system: NCI-H322M; assay: NCI single dose (10 µM) SRB screen; type: cell-based; conditions: non-small cell lung cancer, 48 h
[22] = test system: RXF 393; assay: NCI single dose (10 µM) SRB screen; type: cell-based, human; conditions: renal cancer, 48 h
[23] = test system: NCI-H460; assay: NCI single dose (10 µM) SRB screen; type: cell-based, human; conditions: non-small cell lung cancer, 48 h
[24] = test system: OVCAR-8; assay: NCI single dose (10 µM) SRB screen; type: cell-based, human; conditions: ovarian cancer, 48 h
[25] = test system: T-47D; assay: NCI single dose (10 µM) SRB screen; type: cell-based, human; conditions: breast cancer, 48 h
[26] = test system: OVCAR-4; assay: NCI single dose (10 µM) SRB screen; type: cell-based, human; conditions: ovarian cancer, 48 h
[27] = test system: Aspergillus flavus; assay: Agar well diffusion method
[28] = test system: PC-3; assay: NCI single dose (10 µM) SRB screen; type: cell-based, human; conditions: prostate cancer, 48 h
[29] = test system: MOLT-4; assay: NCI single dose (10 µM) SRB screen; type: cell-based, human; conditions: leukaemia, 48 h
[30] = test system: HCC-2998; assay: NCI single dose (10 µM) SRB screen; type: cell-based, human; conditions: colon cancer, 48 h
[31] = test system: COLO 205; assay: NCI single dose (10 µM) SRB screen; type: cell-based, human; conditions: colon cancer, 48 h
[32] = test system: MDA-MB-231; assay: NCI single dose (10 µM) SRB screen; type: cell-based, human; conditions: breast cancer, 48 h
[33] = test system: SN12C; assay: NCI single dose (10 µM) SRB screen; type: cell-based, human; conditions: renal cancer, 48 h
[34] = test system: HT29; assay: NCI single dose (10 µM) SRB screen; type: cell-based, human; conditions: colon cancer, 48 h
[35] = test system: SF-268; assay: NCI single dose (10 µM) SRB screen; type: cell-based, human; conditions: CNS cancer, 48 h
[36] = test system: SNB-75; assay: NCI single dose (10 µM) SRB screen; type: cell-based, human; conditions: CNS cancer, 48 h
[37] = test system: SF-295; assay: NCI single dose (10 µM) SRB screen; type: cell-based, human; conditions: CNS cancer, 48 h
[38] = test system: MALME-3M; assay: NCI single dose (10 µM) SRB screen; type: cell-based, human; conditions: melanoma, 48 h
[39] = test system: HOP-92; assay: NCI single dose (10 µM) SRB screen; type: cell-based, human; conditions: non-small cell lung cancer, 48 h
[40] = test system: NCI/ADR-RES; assay: NCI single dose (10 µM) SRB screen; type: cell-based, human; conditions: ovarian cancer, 48 h
[41] = test system: HS578T; assay: NCI single dose (10 µM) SRB screen; type: cell-based, human; conditions: breast cancer, 48 h
[42] = test system: SK-OV-3; assay: NCI single dose (10 µM) SRB screen; type: cell-based, human; conditions: ovarian cancer, 48 h
[43] = test system: CAKI-1; assay: NCI single dose (10 µM) SRB screen; type: cell-based, human; conditions: renal cancer, 48 h
[44] = test system: NCI-H23; assay: NCI single dose (10 µM) SRB screen; type: cell-based, human; conditions: non-small cell lung cancer, 48 h
[45] = test system: U251; assay: NCI single dose (10 µM) SRB screen; type: cell-based, human; conditions: CNS cancer, 48 h
[46] = test system: MDA-MB-468; assay: NCI single dose (10 µM) SRB screen; type: cell-based, human; conditions: breast cancer, 48 h
[47] = test system: OVCAR-5; assay: NCI single dose (10 µM) SRB screen; type: cell-based, human; conditions: ovarian cancer, 48 h
[48] = test system: HL-60(TB); assay: NCI single dose (10 µM) SRB screen; type: cell-based, human; conditions: leukaemia, 48 h
[49] = test system: A549/ATCC; assay: NCI single dose (10 µM) SRB screen; type: cell-based, human; conditions: non-small cell lung cancer, 48 h
[50] = test system: SF-539; assay: NCI single dose (10 µM) SRB screen; type: cell-based, human; conditions: CNS cancer, 48 h
[51] = test system: 786-0; assay: NCI single dose (10 µM) SRB screen; type: cell-based, human; conditions: renal cancer, 48 h
[52] = test system: UACC-257; assay: NCI single dose (10 µM) SRB screen; type: cell-based, human; conditions: melanoma, 48 h
[53] = test system: K-562; assay: NCI single dose (10 µM) SRB screen; type: cell-based, human; conditions: leukaemia, 48 h

`COC(=O)C1=C(C)NC(C)=C(C(=O)OC(C)C)C1c1cccc(C#N)c1` (racemic) [Compound 2a, (±)-3-Isopropyl 5-methyl 4-(3-cyanophenyl)-2,6-dimethyl-1,4-dihydropyridine-3,5-dicarboxylate] was tested, and the “GI% HCT-15” value [1] was “– (Only GI% ≥ 10 are shown)”, the “GI% SNB-19” value [2] was “– (Only GI% ≥ 10 are shown)” and the “GI% MDA-MB-435” value [3] was “– (Only GI% ≥ 10 are shown)”. The “GI% OVCAR-3” value [4] was “– (Only GI% ≥ 10 are shown)”, the “GI% TK-10” value [5] was “– (Only GI% ≥ 10 are shown)” and the “GI% EKVX” value [6] was “– (Only GI% ≥ 10 are shown)”. For the same compound, the “GI% RPMI-8226” value [7] was “– (Only GI% ≥ 10 are shown)”, the “GI% HCT-116” value [8] was “– (Only GI% ≥ 10 are shown)” and the “GI% IGROV1” value [9] was “– (Only GI% ≥ 10 are shown)”. The “GI% CCRF-CEM” value [10] was “– (Only GI% ≥ 10 are shown)”, the “GI% ACHN” value [11] was “– (Only GI% ≥ 10 are shown)” and the “Mean GI%” value [12] was 0%. For the same compound, the zone of inhibition at 1000 µg/mL ([13]; Candida albicans, 24 h, read-out: Diameter of inhibition zone, C. albicans) was 21 mm, the “% activity index, C. albicans” value ([13]; relative to clotrimazole) was 77% and 77.8% and the “GI% SK-MEL-2” value [14] was “– (Only GI% ≥ 10 are shown)”. The “GI% BT-549” value [15] was “– (Only GI% ≥ 10 are shown)”, the “GI% LOX IMVI” value [16] was “– (Only GI% ≥ 10 are shown)” and the “GI% M14” value [17] was “– (Only GI% ≥ 10 are shown)”. For the same compound, the “GI% UO-31” value [18] was “– (Only GI% ≥ 10 are shown)”, the “GI% A498” value [19] was 11% and the zone of inhibition at 1000 µg/mL ([20]; Staphylococcus aureus, 24 h, read-out: Diameter of inhibition zone, S. aureus) was 20 mm. For the same compound, the “% activity index, S. aureus” value ([20]; relative to ciprofloxacin) was 83% and 83.3%, the “GI% NCI-H322M” value [21] was “– (Only GI% ≥ 10 are shown)” and the “GI% RXF 393” value [22] was “– (Only GI% ≥ 10 are shown)”. The “GI% NCI-H460” value [23] was “– (Only GI% ≥ 10 are shown)”, the “GI% OVCAR-8” value [24] was “– (Only GI% ≥ 10 are shown)” and the “GI% T-47D” value [25] was “– (Only GI% ≥ 10 are shown)”. The “GI% OVCAR-4” value [26] was “– (Only GI% ≥ 10 are shown)”, the zone of inhibition at 1000 µg/mL ([27]; Aspergillus flavus, 24 h, read-out: Diameter of inhibition zone, A. flavus) was 22 mm and the “% activity index, A. flavus” value ([27]; relative to clotrimazole) was 88%. The “GI% PC-3” value [28] was 16%, the “GI% MOLT-4” value [29] was 16% and the “GI% HCC-2998” value [30] was “– (Only GI% ≥ 10 are shown)”. The “GI% COLO 205” value [31] was “– (Only GI% ≥ 10 are shown)”, the “GI% MDA-MB-231” value [32] was “– (Only GI% ≥ 10 are shown)” and the “GI% SN12C” value [33] was “– (Only GI% ≥ 10 are shown)”. The “GI% HT29” value [34] was “– (Only GI% ≥ 10 are shown)”, the “GI% SF-268” value [35] was “– (Only GI% ≥ 10 are shown)” and the “GI% SNB-75” value [36] was “– (Only GI% ≥ 10 are shown)”. The “GI% SF-295” value [37] was “– (Only GI% ≥ 10 are shown)”, the “GI% MALME-3M” value [38] was “– (Only GI% ≥ 10 are shown)” and the “GI% HOP-92” value [39] was “– (Only GI% ≥ 10 are shown)”. The “GI% NCI/ADR-RES” value [40] was “– (Only GI% ≥ 10 are shown)”, the “GI% HS578T” value [41] was “– (Only GI% ≥ 10 are shown)” and the “GI% SK-OV-3” value [42] was “– (Only GI% ≥ 10 are shown)”. For the same compound, the “GI% CAKI-1” value [43] was 11%, the “GI% NCI-H23” value [44] was “– (Only GI% ≥ 10 are shown)” and the “GI% U251” value [45] was “– (Only GI% ≥ 10 are shown)”. For the same compound, the “GI% MDA-MB-468” value [46] was “– (Only GI% ≥ 10 are shown)”, the “GI% OVCAR-5” value [47] was “– (Only GI% ≥ 10 are shown)” and the “GI% HL-60(TB)” value [48] was 23%. The “GI% A549/ATCC” value [49] was “– (Only GI% ≥ 10 are shown)”, the “GI% SF-539” value [50] was “– (Only GI% ≥ 10 are shown)” and the “GI% 786-0” value [51] was “– (Only GI% ≥ 10 are shown)”. For the same compound, the “GI% UACC-257” value [52] was “– (Only GI% ≥ 10 are shown)” and the “GI% K-562” value [53] was 16%.
